Measurements taken from patent publication US9849140B2, “Topical compositions comprising bimatoprost and methods for stimulating hair growth therewith” (Allergan, Inc., priority 2009, dated 2017).

Assays:
[1] = system: men with mild to moderate androgenic alopecia (AGA); assay: Phase 2 multicenter trial, scalp hair growth efficacy (DIA: TAHC, TAHW, TAHD; SSA, IGA, GPR); type: in vivo, human
Protocol: (§1) In a phase 2 multicenter trial, men 18-49 years of age with mild to moderate androgenic alopecia (AGA) were randomized in a 1:1:1:1:1 ratio to receive in a double-blind manner bimatoprost (BIM) 0.3%, 0.1%, 0.03%, or vehicle applied once daily, or open label over-the-counter minoxidil 5% solution (MIN) applied twice daily to the vertex area of the scalp for 6 months. Subjects were evaluated every 2 months during treatment and at 2 months after completing treatment. The BIM formulations used in this study were as described in Table 3 above.
The following assessments were made with digital image analysis (DIA; macrophotographs of a prespecified 1-cm^2 circular area at the anterior leading edge of the vertex thinning area of the scalp identified by microdot tattoo) using customized validated software: Target Area Hair Count (TAHC) measured in terminal hairs/cm^2; Target Area Hair Width (TAHW) measured in mm/cm^2; and, Target Area Hair Darkness (TAHD) measured in intensity units;
Co-primary efficacy endpoints measured included the change from baseline in TAHC and the SSA of change in scalp hair growth. Secondary efficacy endpoints included changes from baseline in TAHW and TAHD, and IGA/GPR of changes in scalp hair growth. […]

[2] = system: men with mild to moderate androgenic alopecia (AGA); assay: Phase 2 multicenter trial, safety (treatment-related adverse events, clinical laboratory, vital signs, ECGs, physical examinations); type: in vivo, human
Protocol: as §1
Safety measures included adverse event monitoring, local tolerability assessment, clinical laboratory testing, vital signs, 12-lead electrocardiograms (ECGs), and physical examinations.
Percent changes from baseline in TAHC, TAHW, and TAHD were analyzed using the Wilcoxon rank-sum test. Frequency distributions of SSA, IGA, and GPR scores were analyzed using a Cochran-Mantel-Haenszel test stratified for age group (18-34 vs 35-49 years), and missing data were imputed to month 6 using a last-observation-carried-forward approach. Safety measures were evaluated in all subjects who received study medication; among-group and pairwise comparisons of the incidence of adverse events were performed using a chi-square or Fisher's exact test

CCNC(=O)CCC/C=C\C[C@@H]1[C@@H](/C=C/[C@@H](O)CCc2ccccc2)[C@H](O)C[C@@H]1O [bimatoprost, cyclopentane N-ethyl heptanamide-5-cis-2-(3α-hydroxy-5-phenyl-1-trans-pentenyl)-3,5-dihy-droxy, [1α,2β,3α,5α]]
distribution of SSA (Subject Self Assessment) scores versus vehicle, in words ([1]; month 6): did not differ | changes in TAHC and TAHW versus vehicle, in words ([1]; two months after stopping treatment): no longer significantly different from vehicle | incidence of treatment-related adverse events, in words ([2]; compared with vehicle and minoxidil): slightly higher with bimatoprost compared with vehicle, but lower than the rate with minoxidil | changes in clinical laboratory parameters, vital signs, ECGs, or physical examinations, in words ([2]; human, in vivo): no clinically meaningful or dose-dependent changes | safety and tolerability profile, in words ([2]; human, in vivo): consistent with that of an established topical treatment for scalp hair growth
